Literature values as cited in PubChem BioAssay AID1259409 (Chemical Carcinogenesis Research Information System (CCRIS), 2018).

Tested on: rodent chemically induced tumor inhibition, incidence and multiplicity
Test: CCRIS tumor inhibitor studies
Conditions: Species: MOUSE

Q: For `O=c1c(O)c(-c2ccc(O)c(O)c2)oc2cc(O)cc(O)c12`, which “tumour outcome (control, treated, inhibition, significance)” value (Carcinogen: 7,12-DIMETHYLBENZ[A]ANTHRACENE, 57-97-6, Dose [Inhibitor]: 30 UMOL IN 100 µL ACETONE/DIMETHYL SULFOXIDE (4/1, V/V) 2/WK 40 MINUTES BEFORE AND CONCURRENTLY WITH EACH PROMOTER TREAT, Route [Inhibitor]: DERMAL, Strain/Sex: ICR/FEMALE, Target Tissue: Type of Lesion: SKIN: PAPILLOMA, Dose [Carcinogen]: 100 UG IN 100 µL ACETONE ONCE, Promoter: TELEOCIDIN, 78474-55-2) is on record?
A: The value was 80%, 30%, 63%, not calculated.

Q: And the “tumour outcome (control, treated, inhibition, significance)” value (Carcinogen: 7,12-DIMETHYLBENZ[A]ANTHRACENE, 57-97-6, Dose [Inhibitor]: 100 UG IN 0.2 ML ACETONE ONCE 5 MIN BEFORE CARCINOGEN TREATMENT (STUDY DURATION: 31 WK), Route [Inhibitor]: DERMAL, Strain/Sex: CD-1/FEMALE, Target Tissue: Type of Lesion: SKIN: PAPILLOMA, Dose [Carcinogen]: 10 NMOL IN 0.2 ML ACETONE ONCE, Promoter: 12-O-TETRADECANOYLPHORBOL-13-ACETATE, 16561-29-8)?
A: Its value is 87%, 70%, 20%, not calculated.

Q: What about the “tumour outcome (control, treated, inhibition, significance)” value (Carcinogen: (+/-)-7BETA,8ALPHA-DIHYDROXY-9ALPHA,10ALPHA-EPOXY-7,8,9,10- TETRAHYDROBENZO[A]PYRENE, 58917-67-2, Dose [Inhibitor]: 3000 NMOL IN 0.2 ML ACETONE 1/D FOR 7 D (STUDY DURATION: 18 WK), Route [Inhibitor]: DERMAL, Strain/Sex: SENCAR/FEMALE, Target Tissue: Type of Lesion: SKIN: TUMOR, Dose [Carcinogen]: 200 NMOL IN 0.2 ML ACETONE ONCE 30 MIN POST LAST CARCINOGEN DOSE, Promoter: 12-O-TETRADECANOYLPHORBOL-13-ACETATE, 16561-29-8) of the same compound?
A: The value was 75%, 65%, 13%, not significant.

Q: What about the “tumour outcome (control, treated, inhibition, significance)” value (Carcinogen: (+/-)-7BETA,8ALPHA-DIHYDROXY-9ALPHA,10ALPHA-EPOXY-7,8,9,10-TETRAHYDROBENZO[A]PYR ENE, 58917-67-2, Dose [Inhibitor]: 0, 1400 NMOL (TOTAL DOSE) APPLIED 10 MIN PRIOR TO CARCINOGEN DOSE INJECTED AS 1/7, 2/7, AND 4/7 OF THE TOTAL ON DAYS 1,, Route [Inhibitor]: INTRAPERITONEAL, Strain/Sex: ICR/MALE,FEMALE, Target Tissue: Type of Lesion: LUNG: TUMOR, Dose [Carcinogen]: 30 NMOL (TOTAL DOSE) INJECTED IN DOSES OF 1/7, 2/7, AND 4/7 ON DAYS 1, 8, AND 15 OF LIFE, RESPECTIVELY, Promoter: NONE USED) of the same compound?
A: The value was 93%, 81%, 13%, not significant.

Q: What about the “tumour outcome (control, treated, inhibition, significance)” value (Carcinogen: (+/-)-7BETA,8ALPHA-DIHYDROXY-9ALPHA,10ALPHA-EPOXY-7,8,9,10-TETRAHYDROBENZO[A]PYR ENE, 58917-67-2, Dose [Inhibitor]: 0, 2500 NMOL IN 200 µL ACETONE:DMSO (90:10) ONCE APPLIED 5 MIN PRIOR TO CARCINOGEN DOSE (STUDY DURATION: 21 WK), Route [Inhibitor]: DERMAL, Strain/Sex: CD-1/FEMALE, Target Tissue: Type of Lesion: SKIN: TUMOR, Dose [Carcinogen]: 200 NMOL IN ACETONE:DMSO (90:10) ONCE, Promoter: 12-O-TETRADECANOYLPHORBOL-13-ACETATE, 16561-29-8) of the same compound?
A: The value was 59%, 69%, -17%, not significant.

Q: What about the “tumour outcome (control, treated, inhibition, significance)” value (Carcinogen: AZOXYMETHANE, 25843-45-2, Dose [Inhibitor]: 0, 0.1% IN DIET FOR DURATION OF STUDY (STUDY DURATION: 48 WK), Route [Inhibitor]: ORAL, Strain/Sex: CF-1/FEMALE, Target Tissue: Type of Lesion: COLON: TUMOR, Dose [Carcinogen]: 10 MG/KG BW 3 TIMES, Promoter: NONE USED) of the same compound?
A: Its value is 8/32 (25%), 5/32 (16%), 36%, not significant.

Q: And the “tumour outcome (control, treated, inhibition, significance)” value (Carcinogen: AZOXYMETHANE, 25843-45-2, Dose [Inhibitor]: 0, 0.5% IN DIET FOR DURATION OF STUDY (STUDY DURATION: 48 WK), Route [Inhibitor]: ORAL, Strain/Sex: CF-1/FEMALE, Target Tissue: Type of Lesion: COLON: TUMOR, Dose [Carcinogen]: 10 MG/KG BW 3 TIMES, Promoter: NONE USED)?
A: Its value is 8/32 (25%), 7/35 (20%), 20%, not significant.

Q: And the “tumour outcome (control, treated, inhibition, significance)” value (Carcinogen: AZOXYMETHANE, 25843-45-2, Dose [Inhibitor]: 0, 2% IN DIET FOR DURATION OF STUDY (STUDY DURATION: 48 WK), Route [Inhibitor]: ORAL, Strain/Sex: CF-1/FEMALE, Target Tissue: Type of Lesion: COLON: TUMOR, Dose [Carcinogen]: 10 MG/KG BW 3 TIMES, Promoter: NONE USED)?
A: Its value is 8/32 (25%), 2/34 (6%), 76%, p=0.003.

Q: What about the “tumour outcome (control, treated, inhibition, significance)” value (Carcinogen: BENZO[A]PYRENE, 50-32-8, Dose [Inhibitor]: 0, 1400 NMOL (TOTAL DOSE) APPLIED 10 MIN PRIOR TO CARCINOGEN DOSE INJECTED AS 1/7, 2/7, AND 4/7 OF THE TOTAL ON DAYS 1,, Route [Inhibitor]: INTRAPERITONEAL, Strain/Sex: ICR/MALE,FEMALE, Target Tissue: Type of Lesion: LUNG: TUMOR, Dose [Carcinogen]: 450 NMOL (TOTAL DOSE) INJECTED IN DOSES OF 1/7, 2/7, AND 4/7 ON DAYS 1, 8, AND 15 OF LIFE, RESPECTIVELY, Promoter: NONE USED) of the same compound?
A: Its value is 73%, 68%, 7%, not significant.

Q: What about the “tumour outcome (control, treated, inhibition, significance)” value (Carcinogen: BENZO[A]PYRENE, 50-32-8, Dose [Inhibitor]: 0, 2500 NMOL IN 200 µL ACETONE:DMSO (90:10) ONCE APPLIED 5 MIN PRIOR TO CARCINOGEN DOSE (STUDY DURATION: 21 WK), Route [Inhibitor]: DERMAL, Strain/Sex: CD-1/FEMALE, Target Tissue: Type of Lesion: SKIN: TUMOR, Dose [Carcinogen]: 50 NMOL IN ACETONE:DMSO (90:10) ONCE, Promoter: 12-O-TETRADECANOYLPHORBOL-13-ACETATE, 16561-29-8) of the same compound?
A: The value was 50%, 45%, 10%, not significant.

Q: And the “tumour outcome (control, treated, inhibition, significance)” value (Carcinogen: BENZO[A]PYRENE, 50-32-8, Dose [Inhibitor]: 0, 12500 NMOL IN 200 µL ACETONE:DMSO (90:10) ONCE APPLIED 5 MIN PRIOR TO CARCINOGEN DOSE (STUDY DURATION: 21 WK), Route [Inhibitor]: DERMAL, Strain/Sex: CD-1/FEMALE, Target Tissue: Type of Lesion: SKIN: TUMOR, Dose [Carcinogen]: 50 NMOL IN ACETONE:DMSO (90:10) ONCE, Promoter: 12-O-TETRADECANOYLPHORBOL-13-ACETATE, 16561-29-8)?
A: The value was 50%, 55%, -10%, not significant.

Q: And the “tumour outcome (control, treated, inhibition, significance)” value (Carcinogen: BENZO[A]PYRENE, 50-32-8, Dose [Inhibitor]: 25 MG IN 0.1 ML DMSO 3/WK ADMINISTERED SIMULTANEOUSLY WITH CARCINOGEN FOR DURATION OF STUDY (STUDY DURATION: 368 D), Route [Inhibitor]: DERMAL, Strain/Sex: ICR/FEMALE, Target Tissue: Type of Lesion: SKIN: SQUAMOUS CARCINOMA, Dose [Carcinogen]: 5 UG IN 0.1 ML DMSO THAT ALSO CONTAINED AGENT 3/WK FOR DURATION OF STUDY, Promoter: NONE USED)?
A: Its value is 6/50 (12%), 0/50 (0%), 100%, not calculated.
